{"source": "patent US20250368629A1", "about": "“FLAVONOID COMPOUNDS AND METHODS AND MATERIALS FOR USING FLAVONOID COMPOUNDS TO TREAT FIBROTIC CONDITIONS” (Mayo Foundation for Medical Education and Research, priority 2022, published 2025)", "key": {"[1]": {"system": "10-18-month-old C57/B6 mice", "test": "Non-resolving model of lung fibrosis (bleomycin, aged mice)", "type": "in vivo, mouse", "experimental": "FIG. 3. Lung fibrosis was induced in 10-18-month-old C57/B6 mice (average ˜15-months) using intratracheal bleomycin (1.1 units/kg) on day 0 of the study. On day 14 one group was administered F-4N (10 mg/kg daily i.p.) for 14 days prior to harvesting the lung for outcomes and senescence clearance and fibrosis. Lung architecture and fibrosis were observed by trichome histological staining and hydroxyproline content. Hydroxyproline content was measured using a hydroxyproline assay kit (Biovision) according to the manufacturer's instructions with slight modification. The lung tissues were weighed, homogenized in sterile water (10 mg of tissue per 100 μL H2O) and hydrolyzed in 12 M HCl in a pressure-tight, Teflon capped vial at 120° C. for 3 hours followed by filtration through a 45 μm Spin-X Centrifuge Tube filter (Corning). Ten μL of the hydrolyzed samples was dried in a Speed-Vac for 2 hours, followed by incubation with 100 μL of Chloramine T reagent for 5 minutes at room temperature and 100 μL of 4-(Dimethylamino)benzaldehyde (DMAB) for 90 minutes at 60° C. The absorbance of oxidized hydroxyproline was determined at 560 nm. Hydroxyproline concentrations were calculated from a standard curve generated using known concentrations of trans-4-hydroxyl-L-proline. The total amount of protein isolated from the weighed tissues was determined by using a protein assay kit (Bio-Rad, absorbance at 595 nm). The amount of collagen was expressed in μg/mg total protein. qPCR: RNA isolation using RNeasy Plus Mini Kit (Qiagen) according to the manufacturer's instructions. Isolated RNA (250 ng) was then used to synthesize cDNA using SuperScript VILO (Invitrogen). Quantitative PCR was performed using FastStart Essential DNA Green Master (Roche) and analyzed using a LightCycler 96 (Roche). Data are expressed as a fold change by ΔΔCt relative to glyceraldehyde-3-phosphate dehydrogenase (GAPDH)."}, "[2]": {"system": "mice with intratracheal bleomycin injury", "test": "Acute exposure bleomycin dose-finding study", "type": "in vivo, mouse", "experimental": "On day 1 mice received intratracheal sham or bleomycin injury. On day 7 mice were divided into groups and treated daily with vehicle, 10, 30, or 100 mg/kg F-4N by oral gavage for 7 days. On day 14 organs and plasma were collected. Weight changes were measured throughout the experiment (FIG. 24B). Whole lung RNA expression of profibrotic genes as also examined (FIG. 24C). […] F-4N efficacy biomarkers were identified. RNA was collected from vehicle treated mice and from mice treated with 30 mg/kg F-4N. RNA was analyzed using the RT2 Profiler PCR array (Qiagen Catalog No.—330231) which measures expression of 89 different cytokines and chemokines. […] A level of genes whose expression is altered in response to F-4N can be used as a biomarker for F-4N efficacy."}, "[3]": {"system": "senescent human adult lung fibroblasts", "test": "Apoptosis of senescent lung fibroblasts (cleaved caspase-3, DAPI)", "type": "cell-based", "details": "Fibroblast; replicatively senescent human adult lung fibroblasts, 96 hours, 6-point dose-response, N=3", "experimental": "Human adult lung fibroblasts were replicatively passaged until senescence (confirmed by RNA and senescence associated beta galactosidase staining). In a parallel experiment, low passage proliferating fibroblasts from the same donor were compared. Cells were plated into 96-well plates and treated with the indicated compound (6-point dose-response) and incubated for 96 hours. Cells were then fixed using 4% PFA, permeabilized using 0.25% triton x-100, and nuclear stained using a primary antibody for cleaved caspase-3, secondary fluorescence conjugated antibody, and DAPI. Cells were then imaged using a 4× objective on a Cytation5 microscope and cell counts were quantified using automated software (Biotek Gen5). Data shown are the EC50 values calculated for each compounds efficacy to induce apoptosis in senescence vs. proliferating lung fibroblasts, from the calculated dose-response curves, N=3 independent experiments."}, "in vitro": {"test": "in vitro", "type": "in vitro ADME", "details": "rat", "experimental": "Plasma protein binding assays were also performed (Table 2). Compounds were incubated with rat plasma for 4 hours. The percent of F-4N recovered was analyzed by LC-MS. Warfarin was used as a control for a compound with high plasma protein binding. Analysis performed by Cyprotex (Framingham, MA)."}, "[4]": {"test": "Microsomal stability, human liver derived microsomes", "type": "in vitro ADME", "experimental": "The microsomal stability of F-4N was also assessed (FIG. 28). Compounds were incubated with human or mouse liver derived microsomes. The percent of F-4N recovered was analyzed by LC-MS. Verapamil was used as a control for a rapidly degraded compound. Analysis was performed by Cyprotex (Framingham, MA)."}, "[5]": {"test": "Levels of unbound compound in plasma and liver of mice (LC-MS)", "type": "in vivo, mouse", "details": "2 hours and 8 hours after the final dose, oral gavage 7 days", "experimental": "Levels of F-4N in the plasma and liver of mice following F-4N exposure were examined (FIG. 26). Plasma and liver tissue was collected 2 hours and 8 hours after the final dose from the mice subjected to the protocol described in FIG. 24A. Levels of unbound (free) F-4N were analyzed by Cyprotex (Framingham, MA) using LC-MS."}, "[6]": {"details": "10 mg/kg daily i.p. for 14 days"}, "[7]": {"details": "10 mg/kg daily i.p. for 14 days, qPCR"}, "[8]": {"details": "30 and 100 mg/kg daily oral gavage, 7 days"}}}
{"compound": "O=c1c(O)c(-c2ccc(OCc3ccncc3)cc2)oc2ccccc12", "note": "[F—4N]", "values": [{"measurement": "fibrosis and lung architecture by trichrome histological staining", "setting": "[1]; [6]", "value": "less fibrosis and improved lung architecture"}, {"measurement": "lung hydroxyproline content", "setting": "[1]; [6]", "value": "reduced"}, {"measurement": "whole lung expression of Collagen I", "setting": "[1]; [7]", "value": "reduced expression"}, {"measurement": "whole lung expression of senescence markers (Cdkn2a, Cdkn1a, Ccl2)", "setting": "[1]; [7]", "value": "reduced expression"}, {"measurement": "survival following bleomycin-induced fibrosis", "setting": "[1]; 10 mg/kg daily i.p. from day 14", "value": "improved survival"}, {"measurement": "number of genes with reduced expression (RT2 Profiler PCR array of 89 cytokines and chemokines)", "setting": "[2]; 30 mg/kg, after 7 days of treatment", "value": 11, "unit": "genes"}, {"measurement": "weight change", "setting": "[2]; [8]", "value": "improved weight change"}, {"measurement": "whole lung RNA expression of profibrotic genes", "setting": "[2]; [8]", "value": "reduced expression"}, {"measurement": "EC50", "setting": "[3]", "value": 800, "unit": "nM"}, {"measurement": "recovery at 4 h, 5 μM", "setting": "in vitro", "value": 100, "unit": "%"}, {"measurement": "Plasma bound", "setting": "in vitro; 4 h, 5 μM", "value": 99, "unit": "%"}, {"measurement": "plasma protein binding (in words)", "setting": "in vitro; plasma", "value": "high"}, {"measurement": "Plasma unbound", "setting": "in vitro; plasma, 4 h, 5 μM", "value": 0.94, "unit": "%"}, {"measurement": "microsomal stability: half-life and clearance rate", "setting": "[4]", "value": "in line with many clinically approved orally administered drugs"}, {"measurement": "levels of unbound (free) compound in plasma and liver", "setting": "[5]", "value": "higher in liver than plasma"}]}
